Results as given in patent US10781182B2, “Compounds, process for obtaining the compounds, pharmaceutical composition, use of the compounds and method for treating psychiatric disorders and/or sleep disorders” (ACHÉ LABORATÓRIOS FARMACÊUTICOS S.A., priority 2016, dated 2020).
Values after ≈ are worked out from the molar mass of the structure shown.

Key:
CYP2C9 = CYP2C9 (Homo sapiens (Human), UniProt P11712); assay: CYP inhibition, fluorogenic substrate; assay type: in vitro ADME; parameters: dose or concentration left out as unconfirmed; settings: recombinant CYP2C9, pH 7.4
Sequence of CYP2C9 (P11712 whole entry): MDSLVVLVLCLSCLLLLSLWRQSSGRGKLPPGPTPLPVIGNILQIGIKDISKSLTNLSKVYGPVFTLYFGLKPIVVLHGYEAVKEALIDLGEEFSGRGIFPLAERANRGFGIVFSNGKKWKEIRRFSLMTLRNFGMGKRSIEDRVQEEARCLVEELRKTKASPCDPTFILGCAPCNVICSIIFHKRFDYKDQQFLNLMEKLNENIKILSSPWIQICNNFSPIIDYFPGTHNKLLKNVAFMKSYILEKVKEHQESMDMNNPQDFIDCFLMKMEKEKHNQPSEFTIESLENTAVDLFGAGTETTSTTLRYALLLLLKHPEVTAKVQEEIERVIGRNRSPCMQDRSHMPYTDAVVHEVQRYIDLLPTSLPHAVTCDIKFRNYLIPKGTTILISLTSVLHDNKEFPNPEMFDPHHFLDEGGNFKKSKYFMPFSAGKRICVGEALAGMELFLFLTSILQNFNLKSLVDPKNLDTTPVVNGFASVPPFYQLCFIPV
Text: (§1) The CYP inhibition test used fluorogenic substrates specific to each CYP to check for inhibition thereof by detection of the expected metabolite using a fluorimetric method. Recombinant CYPs (CYP2B6, CYP2C8, […], CYP2C19, CYP2D6, CYP3A4) from specific humans for each cytochrome family, subfamily and polypeptide were used. The following were used as substrates: CEC (3-Cyano-7-Ethoxycoumarin) which forms as metabolite CHC (3-Cyano-7-Hydroxycoumarin); EFC (7-Ethoxy-4-trifluoromethyl coumarin), forming the metabolite HFC (7-Hydroxytri fluoromethylcoumarin); DBF (Dibenzylfluorescein) and its respective fluorescein metabolite; MFC (7-Methoxy-4-trifluoromethylcoumarin) which forms the metabolite HFC (7-Hydroxytrifluoromethylcoumarin); BFC (7-Benzyloxy-Trifluoromethylcoumarin) and its metabolite HFC; and BzRes (benzyloxyresorufin) to form resofurine. The detection of the metabolite was done with a fluorimetric method: analytical technique to identify and characterize the amount of substance by excitation using a beam of ultraviolet light and measurement of the emitted fluorescence. For detection, a 96-well plate was used. Each sample was tested in two wells (n=2) as standard condition. At least 04 wells were separated for vehicle (control). Compounds were tested at a concentration […], standard for this assay. They were preincubated with a NADPH generator system in a phosphate buffer (pH 7.4) for 5 minutes at 37° C. The reaction was started by adding the specific CYP enzymes, substrate and bovine serum albumin (BSA<0.4 mg/ml). Incubations were performed between 20-50 minutes at 37° C. according to the specific parameter of each fluorogenic substrate, for the evaluated component. Fluorescence at each well was detected before and after the incubation period.

CYP2B6 = CYP2B6 (Homo sapiens (Human), UniProt P20813); assay: CYP inhibition, fluorogenic substrate; assay type: in vitro ADME; parameters: dose or concentration left out as unconfirmed; settings: recombinant CYP2B6, pH 7.4
Sequence of CYP2B6 (P20813 whole entry): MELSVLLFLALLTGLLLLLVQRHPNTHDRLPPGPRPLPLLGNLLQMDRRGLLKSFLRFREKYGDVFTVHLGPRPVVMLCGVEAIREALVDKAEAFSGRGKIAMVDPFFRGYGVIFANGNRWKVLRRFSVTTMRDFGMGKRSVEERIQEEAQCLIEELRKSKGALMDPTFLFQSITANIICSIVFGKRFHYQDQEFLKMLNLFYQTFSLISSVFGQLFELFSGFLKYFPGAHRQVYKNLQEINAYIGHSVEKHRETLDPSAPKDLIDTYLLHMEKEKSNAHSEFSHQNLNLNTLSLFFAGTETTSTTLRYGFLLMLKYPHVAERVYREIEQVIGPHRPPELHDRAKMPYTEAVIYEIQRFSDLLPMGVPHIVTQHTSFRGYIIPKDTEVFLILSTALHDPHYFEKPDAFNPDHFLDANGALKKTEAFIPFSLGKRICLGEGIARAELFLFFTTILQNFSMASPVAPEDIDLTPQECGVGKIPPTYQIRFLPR
Text: as §1

CYP2D6 = CYP2D6 (Homo sapiens (Human), UniProt P10635); assay: CYP inhibition, fluorogenic substrate; assay type: in vitro ADME; parameters: dose or concentration left out as unconfirmed; settings: recombinant CYP2D6, pH 7.4
Sequence of CYP2D6 (P10635 whole entry): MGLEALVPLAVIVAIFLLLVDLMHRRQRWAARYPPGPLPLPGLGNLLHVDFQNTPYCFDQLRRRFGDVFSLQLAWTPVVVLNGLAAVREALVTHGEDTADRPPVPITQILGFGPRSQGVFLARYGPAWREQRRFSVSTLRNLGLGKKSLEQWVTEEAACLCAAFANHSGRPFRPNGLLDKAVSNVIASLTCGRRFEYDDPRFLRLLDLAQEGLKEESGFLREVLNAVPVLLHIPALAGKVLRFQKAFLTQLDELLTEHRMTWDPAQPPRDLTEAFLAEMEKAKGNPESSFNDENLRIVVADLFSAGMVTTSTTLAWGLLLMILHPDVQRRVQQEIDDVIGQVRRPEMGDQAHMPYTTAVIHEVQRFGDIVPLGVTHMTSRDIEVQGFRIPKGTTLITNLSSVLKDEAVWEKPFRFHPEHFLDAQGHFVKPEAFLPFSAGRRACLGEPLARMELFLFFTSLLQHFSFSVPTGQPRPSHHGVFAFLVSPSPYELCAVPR
Text: as §1

CYP2C19 = CYP2C19 (Homo sapiens (Human), UniProt P33261); assay: CYP inhibition, fluorogenic substrate; assay type: in vitro ADME; parameters: dose or concentration left out as unconfirmed; settings: recombinant CYP2C19, pH 7.4
Sequence of CYP2C19 (P33261 whole entry): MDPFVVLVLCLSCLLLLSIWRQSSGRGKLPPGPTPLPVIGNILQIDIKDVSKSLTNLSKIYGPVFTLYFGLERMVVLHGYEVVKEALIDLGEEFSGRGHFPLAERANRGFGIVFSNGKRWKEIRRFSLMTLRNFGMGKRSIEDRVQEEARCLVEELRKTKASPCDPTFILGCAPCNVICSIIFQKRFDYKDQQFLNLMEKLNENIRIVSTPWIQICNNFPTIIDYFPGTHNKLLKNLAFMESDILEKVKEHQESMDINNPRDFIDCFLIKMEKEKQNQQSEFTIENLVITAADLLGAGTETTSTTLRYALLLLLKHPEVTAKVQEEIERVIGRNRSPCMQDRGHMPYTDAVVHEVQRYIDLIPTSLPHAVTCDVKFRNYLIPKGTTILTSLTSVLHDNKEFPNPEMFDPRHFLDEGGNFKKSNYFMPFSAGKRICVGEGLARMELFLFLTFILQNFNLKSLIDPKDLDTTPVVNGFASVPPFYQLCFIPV
Text: as §1

CYP2C8 = CYP2C8 (Homo sapiens (Human), UniProt P10632); assay: CYP inhibition, fluorogenic substrate; assay type: in vitro ADME; parameters: dose or concentration left out as unconfirmed; settings: recombinant CYP2C8, pH 7.4
Sequence of CYP2C8 (P10632 whole entry): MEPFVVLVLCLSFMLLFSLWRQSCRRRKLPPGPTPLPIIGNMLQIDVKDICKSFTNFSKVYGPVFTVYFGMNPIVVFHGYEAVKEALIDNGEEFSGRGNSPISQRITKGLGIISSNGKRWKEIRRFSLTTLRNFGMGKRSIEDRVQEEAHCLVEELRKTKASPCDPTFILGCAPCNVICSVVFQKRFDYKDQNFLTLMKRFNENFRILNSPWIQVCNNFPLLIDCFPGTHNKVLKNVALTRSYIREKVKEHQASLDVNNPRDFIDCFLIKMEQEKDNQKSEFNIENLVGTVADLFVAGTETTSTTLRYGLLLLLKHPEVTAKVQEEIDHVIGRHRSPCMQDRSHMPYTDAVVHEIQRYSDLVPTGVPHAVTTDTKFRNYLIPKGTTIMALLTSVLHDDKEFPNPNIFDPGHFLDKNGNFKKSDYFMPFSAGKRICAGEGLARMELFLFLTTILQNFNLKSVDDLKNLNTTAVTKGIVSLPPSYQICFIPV
Text: as §1

[1] = Permeability in Caco-2 cells; assay type: in vitro ADME; settings: human, Caco-2, pH 6.5, 37° C.; for Papp A→B at 60 min: apical to basolateral, read-out: Permeability A-B (pH 6.5/7.4); for Papp B→A at 40 min: basolateral to apical, read-out: Permeability B-A (pH 6.5/7.4)
Experimental: Permeability tests were performed using Caco-2 cells, a colorectal epithelial adenocarcinoma cell line. These cells resemble intestinal epithelial cells in some aspects, such as the formation of a polarized monolayer, a well-defined brush border on the apical surface, and intercellular junctions.
The test is performed in both directions [apical to basolateral (A-B) and basolateral to apical (B-A)] through the cell monolayer, allowing an efflux ratio that provides an indicator as to whether a compound undergoes active efflux. Particle detection was performed with HPLC-MS/MS (mass spectrometry) according to the calculation of the peak area of the result. MS/MS was performed by combining two mass detectors in a single instrument.
A-B permeability was performed at pH 6.5/7.4 with incubation time of 0 and 60 minutes at 37° C. and B-A permeability was performed at pH 6.5/7.4 with incubation time of 0 and 40 minutes at 37° C.

[2] = system: mouse hepatocytes (CD-1 males); assay: Intrinsic clearance in cryopreserved mouse hepatocytes; assay type: in vitro ADME
Experimental: (§2) Cryopreserved hepatocytes from humans, rats (Sprague-Dawley males) and from mice (CD-1 males) were used for incubation at different times (0, 0.5, 1, 1.5, 2 hours) at 37° C. followed by HPLC-MS/MS detection. The aim was to verify the clearance time of the test substance on hepatocytes. The experiment was performed on a 96-well plate and the cryopreserved hepatocytes were thawed and resuspended in Krebs-Heinslet buffer(pH 7.3). The reaction was started by adding each test compound to each cell suspension and performing the incubation at the times indicated above. The reaction was quenched with addition of acetonitrile in the wells and detection by HPLC-MS/MS (mass spectrometry). MS/MS is performed by combining two mass detectors into a single instrument.

[3] = Water solubility (shake-flask, PBS pH 7.4); assay type: physicochemical; settings: aqueous buffer, thermodynamic from solid
Experimental: In addition, chromatographic purity (%) was defined as the calculation of the main peak area relative to the calculation of the peak area integrate of the standard HPLC calibration chromatogram. A standard calibration chromatogram was then generated for each compound tested along with a UV/VIS spectrum with maximal labeled absorbance. The shake-flash technique was used with constant stirring during incubation to keep a uniform medium for 24 hours in PBS at pH 7.4.

[4] = system: rat hepatocytes (Sprague-Dawley males); assay: Intrinsic clearance in cryopreserved rat hepatocytes; assay type: in vitro ADME
Experimental: as §2

human hepatocytes = assay: Intrinsic clearance in cryopreserved human hepatocytes; assay type: in vitro ADME
Experimental: as §2

[5] = oral, estimated, from literature; cited from earlier work
[6] = Pharmacokinetics (PK) in rat, I.V. and oral; assay type: in vivo, Wistar-Han rats; settings: oral 10 mg/kg; for AUC(0-t): Wistar-Han, plasma
Experimental: […] The study lasted for 2 weeks (including acclimation time and study), in which the route of administration was made by injection into the caudal vein and oral gavage. The treatment was carried out in a single dose: I.V. group with dose of 1 mg/kg and Oral group with dose of 10 mg/kg. […] Clinical observations were made twice a day (morning and afternoon) in the pre-dose at the 08 time points defined in the protocol. Blood collection was performed after euthanasia in the pre-dose animals at 08 defined time points and at 24 hours post-dose. The pharmacokinetic analysis parameters detected for Group IV were: half-life (t½), drug concentration at time zero (C0), last measurable plasma concentration (AUClast), area under the plasma concentration curve extrapolation percentage (AUC % ext), area under the plasma concentration curve extrapolation to infinity (AUCinf), volume of distribution (Vz), steady state volume of distribution (Vss), clearance (CL) and mean residence time (MRT). The parameters evaluated for the Oral group were: bioavailability (F %), maximum concentration reached (Cmax), time to reach maximum plasma concentration (Tmax), last measurable plasma concentration (AUClast), area under the plasma concentration curve extrapolation percentage (AUC % ext), area under the plasma concentration curve extrapolation to infinity (AUCinf), area under the plasma concentration curve extrapolation to infinity versus dose (AUCinf/Dose), half-Life (t½), and mean residence time (MRT).

CYP1A2 = CYP1A2 (Homo sapiens (Human), UniProt P05177); assay: CYP inhibition, fluorogenic substrate; assay type: in vitro ADME; parameters: inhibition: dose or concentration left out as unconfirmed; settings: human, recombinant CYP1A2, pH 7.4
Sequence of CYP1A2 (P05177 whole entry): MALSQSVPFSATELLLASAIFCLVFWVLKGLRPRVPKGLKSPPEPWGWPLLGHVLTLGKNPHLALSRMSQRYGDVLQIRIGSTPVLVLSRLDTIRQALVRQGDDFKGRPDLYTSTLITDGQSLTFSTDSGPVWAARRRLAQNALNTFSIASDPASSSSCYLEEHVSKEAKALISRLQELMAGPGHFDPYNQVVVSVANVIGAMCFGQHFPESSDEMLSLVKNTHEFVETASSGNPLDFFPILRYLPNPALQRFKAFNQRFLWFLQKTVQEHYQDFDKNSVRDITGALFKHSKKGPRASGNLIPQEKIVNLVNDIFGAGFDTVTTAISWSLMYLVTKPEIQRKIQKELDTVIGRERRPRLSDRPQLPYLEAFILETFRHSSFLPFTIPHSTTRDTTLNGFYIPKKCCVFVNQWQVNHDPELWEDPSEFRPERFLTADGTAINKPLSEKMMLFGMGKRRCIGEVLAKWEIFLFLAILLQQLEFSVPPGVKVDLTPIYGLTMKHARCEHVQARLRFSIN
Text: as §1

[7] = conjugate acid, J. Org. Chem. 1961; cited from earlier work
melatonin receptors = settings: Depreux et al. 1994; cited from earlier work

| Compound | inhibition (CYP2C9) [%] | inhibition (CYP2B6) [%] | inhibition (CYP2D6) [%] | inhibition (CYP2C19) [%] | inhibition (CYP2C8) [%] | Papp A→B at 60 min [1] [×10⁻⁶ cm/s] | Papp B→A at 40 min [1] [×10⁻⁶ cm/s] | Intrinsic clearance half-life, Mouse CD-1 [2] [h] | solubility at 24 h [3] [µM] | Intrinsic clearance half-life, Rat Sprague-Dawley [4] [h] | Intrinsic clearance half-life, Human (human hepatocytes) [h] | absolute bioavailability [5] [%] | AUC(0-t) [6] [ng·h/mL] | AUClast [6] [ng·h/mL] | inhibition (CYP1A2) [%] | pKa [7] | affinity, times lower than melatonin affinity (melatonin receptors) |
| --- | --- | --- | --- | --- | --- | --- | --- | --- | --- | --- | --- | --- | --- | --- | --- | --- | --- |
| CCOc1nc2cc(Cl)c(OC)cc2n1CCCNC(C)=O [IA2-142] | 13 | 0.5 | 6.9 | 27.7 | -4.7 | 34 | 57.8 | >2 | 181 (≈ 58.9 µg/mL) | >2 | >2 | – | – | – | – | – | – |
| CCOc1nc2ccc(OC)cc2n1CCCNC(C)=O [IA2-120] | 26.7 | 7.9 | -0.3 | 6.4 | 9.1 | 32.1 | 29.5 | >2 | 200 (≈ 58.3 µg/mL) | 0.883 | >2 | – | – | – | – | – | – |
| CCC(=O)NCC[C@@H]1CCc2ccc3c(c21)CCO3 [ramelteon] | – | – | – | – | – | – | – | – | – | – | – | 1.8 | – | – | – | – | – |
| COc1cc2c(cc1Cl)nc(OC)n2CCNC(C)=O [IA2-143] | -9.6 | -1.1 | 0.8 | 10 | -13 | 21.3 | 71.8 | – | 197 (≈ 58.6 µg/mL) | 1.8 | – | – | 4050 | 4049 | 1.4 | – | – |
| c1ccc2[nH]cnc2c1 [unsubstituted benzimidazole, benzimidazole] | – | – | – | – | – | – | – | – | – | – | – | – | – | – | – | above 6 | – |
| CCOc1nc2cc(Cl)c(OC)cc2n1CCNC(C)=O [IA2-121] | 23.7 | 8.4 | 0.9 | 33.8 | 7 | 58.2 | 32.1 | >2 | 200 (≈ 62.4 µg/mL) | 0.867 | >2 | – | – | – | – | – | – |
| COc1ccc2nc(OC)n(CCCNC(C)=O)c2c1 [IA2-140] | 2.6 | 0.4 | 0.3 | 7.2 | -2.2 | 27.3 | 55.1 | >2 | 197 (≈ 54.7 µg/mL) | >2 | >2 | – | 2440 | – | -0.7 | – | – |
| COc1ccc2ncn(CCNC(C)=O)c2c1 [N-[2-(6-methoxybenzimidazol-1-yl)-ethyl]acetamide] | – | – | – | – | – | – | – | – | – | – | – | – | – | – | – | – | approximately 3,200 times |
